Here are results for 18 compounds from patent US10072011B2, “Substituted bridged urea analogs as sirtuin modulators” (GlaxoSmithKline Intellectual Property (No.2) Limited, priority 2014, dated 2018).

For the test, the target named is T1, SIRT1 (Homo sapiens, UniProt Q96EB6).
T1 sequence (Q96EB6 1-747): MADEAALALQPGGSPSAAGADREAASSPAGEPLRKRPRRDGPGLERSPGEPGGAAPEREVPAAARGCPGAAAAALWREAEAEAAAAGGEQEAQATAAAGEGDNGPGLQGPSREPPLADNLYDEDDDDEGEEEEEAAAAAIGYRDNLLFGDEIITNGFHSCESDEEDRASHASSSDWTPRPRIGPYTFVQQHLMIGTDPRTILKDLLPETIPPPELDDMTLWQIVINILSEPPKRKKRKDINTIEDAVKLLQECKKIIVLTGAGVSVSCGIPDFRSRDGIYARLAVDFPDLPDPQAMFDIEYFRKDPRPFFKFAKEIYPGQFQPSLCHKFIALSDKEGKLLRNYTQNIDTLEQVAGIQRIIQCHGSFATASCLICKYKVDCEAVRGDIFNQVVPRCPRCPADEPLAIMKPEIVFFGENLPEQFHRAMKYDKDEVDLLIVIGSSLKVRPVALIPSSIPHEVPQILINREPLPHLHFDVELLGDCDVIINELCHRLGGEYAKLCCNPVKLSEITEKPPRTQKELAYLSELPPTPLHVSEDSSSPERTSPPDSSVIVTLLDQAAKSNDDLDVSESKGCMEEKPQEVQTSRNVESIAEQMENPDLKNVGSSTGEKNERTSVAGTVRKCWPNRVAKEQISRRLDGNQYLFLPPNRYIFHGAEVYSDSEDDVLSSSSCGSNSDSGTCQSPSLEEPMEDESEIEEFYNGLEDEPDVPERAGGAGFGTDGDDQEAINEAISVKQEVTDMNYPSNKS
Nature of the test: Trp mass spectrometry assay of SIRT1 activation (Ac-R-H-K-K(Ac)-W-NH2 peptide). The format is biochemical. The following applies: for Emax: 25 min, read-out: TRP MAX RESP (percent maximum fold activation). A digest of the protocol:
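N-terminal His-tagged human SIRT1, expressed in BL21(DE3) and purified, was incubated 25 min with an acetylated Trp peptide and NAD plus test compound at varying concentrations, then quenched with formic acid. OAADPR or deacetylated peptide was quantified by mass spectrometry versus compound-free control; EC1.5 is the concentration giving 50% activity increase, with percent maximum activation.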

The mark [1] stands for this setting: Trp peptide 0.5 μM, 120 μM βNAD+, 10 nM SIRT1, 25 min at 25° C., relative to control (100%).
The mark [2] stands for this setting: Trp peptide 0.5 μM, 120 μM βNAD+, 10 nM SIRT1, 25 min at 25° C.

Like-named read-outs stand apart in the source and are kept apart here.

Turning to `O=C(NCC(F)(F)F)c1ccc2c(n1)N(C(=O)Nc1ccc(C3CC3)cn1)[C@H]1CCN2C1` [Example 174, (4S)—N5-(5-cyclopropylpyridin-2-yl)-N7-(2,2,2-trifluoroethyl)-3,4-dihydro-1,4-methanopyrido[2,3-b][1,4]diazepine-5,7(2H)-dicarboxamide], the Emax under setting [1] was > 150%. Also, the “TRP Activity (EC1.5, concentration of test compound that results in 150% activation of SIRT1)” value under setting [2] was “A (EC1.5<1 μM)”.
For the compound `Cc1c[nH]c2nc(NC(=O)N3c4nc(C(=O)N[C@H](C)C(F)(F)F)ccc4N4CC[C@H]3C4)ncc12` [Example 175, (4S)—N5-(5-methyl-7H-pyrrolo[2,3-d]pyrimidin-2-yl)-N7-((R)-1,1,1-trifluoropropan-2-yl)-3,4-dihydro-1,4-methanopyrido[2,3-b][1,4]diazepine-5,7(2H)-dicarboxamide], the Emax under setting [1] is > 150%. Moreover, the “TRP Activity (EC1.5, concentration of test compound that results in 150% activation of SIRT1)” value under setting [2] is “A (EC1.5<1 μM)”.
For the compound `Cc1c[nH]c2nc(NC(=O)N3c4nc(C(=O)NCC(F)(F)F)ccc4N4CC[C@H]3C4)ncc12` [Example 176, (4S)—N5-(5-methyl-7H-pyrrolo[2,3-d]pyrimidin-2-yl)-N7-(2,2,2-trifluoroethyl)-3,4-dihydro-1,4-methanopyrido[2,3-b][1,4]diazepine-5,7(2H)-dicarboxamide], the Emax is > 150%. The “TRP Activity (EC1.5, concentration of test compound that results in 150% activation of SIRT1)” value under setting [2] is reported as “A (EC1.5<1 μM)”.
Turning to `C[C@@H](NC(=O)c1ccc2c(n1)N(C(=O)Nc1ncc(OC[C@@H](O)CO)cn1)[C@H]1CCN2C1)C(F)(F)F` [Example 177, (4S)—N5-(5-((S)-2,3-dihydroxypropoxy)pyrimidin-2-yl)-N7-((R)-1,1,1-trifluoropropan-2-yl)-3,4-dihydro-1,4-methanopyrido[2,3-b][1,4]diazepine-5,7(2H)-dicarboxamide], the Emax under setting [1] was > 150%. Also, the “TRP Activity (EC1.5, concentration of test compound that results in 150% activation of SIRT1)” value under setting [2] is “B (EC1.5 1-25 μM)”.
For the compound `C=CCNC(=O)c1ccc2c(n1)N(C(=O)Nc1cc(OC[C@H](O)CO)ccn1)[C@H]1CCN2C1` [Example 178, (4S)—N7-allyl-N5-(4-((R)-2,3-dihydroxypropoxy)pyridin-2-yl)-3,4-dihydro-1,4-methanopyrido[2,3-b][1,4]diazepine-5,7(2H)-dicarboxamide], the Emax under setting [1] is > 150%. Further, the “TRP Activity (EC1.5, concentration of test compound that results in 150% activation of SIRT1)” value under setting [2] was “B (EC1.5 1-25 μM)”.
On to `C=CCNC(=O)c1ccc2c(n1)N(C(=O)Nc1ccccn1)[C@H]1CCN2C1` [Example 179, (4S)—N7-allyl-N5-(pyridin-2-yl)-3,4-dihydro-1,4-methanopyrido[2,3-b][1,4]diazepine-5,7(2H)-dicarboxamide], for which the Emax under setting [1] was > 150%. The “TRP Activity (EC1.5, concentration of test compound that results in 150% activation of SIRT1)” value under setting [2] was “A (EC1.5<1 μM)”.
Regarding `O=C(NCCO)c1ccnc(NC(=O)N2c3nc(C(=O)NCC(F)(F)F)ccc3N3CC[C@H]2C3)c1` [Example 180, (4S)—N5-(4-((2-hydroxyethyl)carbamoyl)pyridin-2-yl)-N7-(2,2,2-trifluoroethyl)-3,4-dihydro-1,4-methanopyrido[2,3-b][1,4]diazepine-5,7(2H)-dicarboxamide], the Emax under setting [1] was > 150%. The “TRP Activity (EC1.5, concentration of test compound that results in 150% activation of SIRT1)” value under setting [2] is given as “A (EC1.5<1 μM)”.
Consider `C[C@@H](NC(=O)c1ccc2c(n1)N(C(=O)Nc1cc3cc[nH]c3cn1)[C@H]1CCN2C1)C(F)(F)F` [Example 181, (4S)—N5-(1H-pyrrolo[2,3-c]pyridin-5-yl)-N7-((R)-1,1,1-trifluoropropan-2-yl)-3,4-dihydro-1,4-methanopyrido[2,3-b][1,4]diazepine-5,7(2H)-dicarboxamide], for which the Emax under setting [1] is > 150%. Under setting [2], the “TRP Activity (EC1.5, concentration of test compound that results in 150% activation of SIRT1)” value was “A (EC1.5<1 μM)”.
On to `C[C@@H](NC(=O)c1ccc2c(n1)N(C(=O)Nc1cc(-n3ccnn3)ccn1)[C@H]1CCN2C1)C(F)(F)F` [Example 182, (4S)—N5-(4-(1H-1,2,3-triazol-1-yl)pyridin-2-yl)-N7-((R)-1,1,1-trifluoropropan-2-yl)-3,4-dihydro-1,4-methanopyrido[2,3-b][1,4]diazepine-5,7(2H)-dicarboxamide], for which the Emax under setting [1] is > 150%. Further, under setting [2], the “TRP Activity (EC1.5, concentration of test compound that results in 150% activation of SIRT1)” value is reported as “A (EC1.5<1 μM)”.
Turning to `CC(F)(F)CNC(=O)c1ccc2c(n1)N(C(=O)Nc1cc(OC[C@H](O)CO)ccn1)[C@H]1CCN2C1` [Example 183, (4S)—N7-(2,2-difluoropropyl)-N5-(4-((R)-2,3-dihydroxypropoxy)pyridin-2-yl)-3,4-dihydro-1,4-methanopyrido[2,3-b][1,4]diazepine-5,7(2H)-dicarboxamide], under setting [1], the Emax is > 150%. Further, under setting [2], the “TRP Activity (EC1.5, concentration of test compound that results in 150% activation of SIRT1)” value is “B (EC1.5 1-25 μM)”.
On to `O=C(N[C@H](c1ccccc1)C(F)(F)F)c1ccc2c(n1)N(C(=O)Nc1cc(OC[C@H](O)CO)ccn1)[C@H]1CCN2C1` [Example 184, (4S)—N5-(4-((R)-2,3-dihydroxypropoxy)pyridin-2-yl)-N7-((R)-2,2,2-trifluoro-1-phenylethyl)-3,4-dihydro-1,4-methanopyrido[2,3-b][1,4]diazepine-5,7(2H)-dicarboxamide], for which the Emax under setting [1] is > 150%. Also, the “TRP Activity (EC1.5, concentration of test compound that results in 150% activation of SIRT1)” value under setting [2] is given as “A (EC1.5<1 μM)”.
As to `Cn1ccc(=O)c(NC(=O)N2c3nc(C(=O)NCC(F)(F)F)ccc3N3CC[C@H]2C3)c1` [Example 185, (4S)—N5-(1-methyl-4-oxo-1,4-dihydropyridin-3-yl)-N7-(2,2,2-trifluoroethyl)-3,4-dihydro-1,4-methanopyrido[2,3-b][1,4]diazepine-5,7(2H)-dicarboxamide], the Emax was > 150%. Also, under setting [2], the “TRP Activity (EC1.5, concentration of test compound that results in 150% activation of SIRT1)” value is recorded as “A (EC1.5<1 μM)”.
In the case of `C[C@@H](NC(=O)c1ccc2c(n1)N(C(=O)Nc1cc(OCCN)ccn1)[C@H]1CCN2C1)C(F)(F)F` [Example 186, (4S)—N5-(4-(2-aminoethoxy)pyridin-2-yl)-N7-((R)-1,1,1-trifluoropropan-2-yl)-3,4-dihydro-1,4-methanopyrido[2,3-b][1,4]diazepine-5,7(2H)-dicarboxamide], the Emax under setting [1] is > 150%. Further, the “TRP Activity (EC1.5, concentration of test compound that results in 150% activation of SIRT1)” value under setting [2] was “B (EC1.5 1-25 μM)”.
As to `O=C(NCc1cccc(F)c1)c1ccc2c(n1)N(C(=O)Nc1cc(OC[C@H](O)CO)ccn1)[C@H]1CCN2C1` [Example 187, (4S)—N5-(4-((R)-2,3-dihydroxypropoxy)pyridin-2-yl)-N7-(3-fluorobenzyl)-3,4-dihydro-1,4-methanopyrido[2,3-b][1,4]diazepine-5,7(2H)-dicarboxamide], the Emax under setting [1] is > 150%. For the same compound, under setting [2], the “TRP Activity (EC1.5, concentration of test compound that results in 150% activation of SIRT1)” value was “A (EC1.5<1 μM)”.
For the compound `C[C@@H](NC(=O)c1ccc2c(n1)N(C(=O)Nc1cn(C)ccc1=O)[C@H]1CCN2C1)C(F)(F)F` [Example 188, (4S)—N5-(1-methyl-4-oxo-1,4-dihydropyridin-3-yl)-N7-((R)-1,1,1-trifluoropropan-2-yl)-3,4-dihydro-1,4-methanopyrido[2,3-b][1,4]diazepine-5,7(2H)-dicarboxamide], the Emax under setting [1] is > 150%. Further, the “TRP Activity (EC1.5, concentration of test compound that results in 150% activation of SIRT1)” value under setting [2] was “B (EC1.5 1-25 μM)”.
In the case of `C[C@@H](NC(=O)c1ccc2c(n1)N(C(=O)Nc1cc(OC[C@H](O)CO)ncn1)[C@H]1CCN2C1)C(F)(F)F` [Example 189, (4S)—N5-(6-((R)-2,3-dihydroxypropoxy)pyrimidin-4-yl)-N7-((R)-1,1,1-trifluoropropan-2-yl)-3,4-dihydro-1,4-methanopyrido[2,3-b][1,4]diazepine-5,7(2H)-dicarboxamide], under setting [1], the Emax was > 150%. Besides, the “TRP Activity (EC1.5, concentration of test compound that results in 150% activation of SIRT1)” value under setting [2] is reported as “A (EC1.5<1 μM)”.
Turning to `C[C@@H](NC(=O)c1ccc2c(n1)N(C(=O)Nc1ccsn1)[C@H]1CCN2C1)C(F)(F)F` [Example 190, (4S)—N5-(isothiazol-3-yl)-N7-((R)-1,1,1-trifluoropropan-2-yl)-3,4-dihydro-1,4-methanopyrido[2,3-b][1,4]diazepine-5,7(2H)-dicarboxamide], under setting [1], the Emax was > 150%. The “TRP Activity (EC1.5, concentration of test compound that results in 150% activation of SIRT1)” value under setting [2] is on record as “A (EC1.5<1 μM)”.
As for `C[C@@H](NC(=O)c1ccc2c(n1)N(C(=O)Nc1nccs1)[C@H]1CCN2C1)C(F)(F)F` [Example 191, (4S)—N5-(thiazol-2-yl)-N7-((R)-1,1,1-trifluoropropan-2-yl)-3,4-dihydro-1,4-methanopyrido[2,3-b][1,4]diazepine-5,7(2H)-dicarboxamide], the Emax under setting [1] is > 150%. Moreover, under setting [2], the “TRP Activity (EC1.5, concentration of test compound that results in 150% activation of SIRT1)” value was “A (EC1.5<1 μM)”.
